Species: Rattus norvegicus
Test: DrugMatrix - Regimen: Daily Repeat
Assay type: toxicity, organism-based, Sprague-Dawley
Set-up: regimen Daily Repeat, gender Male, age 6-8 weeks
Conditions: in vivo, po, 900 mg/kg, route oral GAVAGE, dose level High, […]; for ABSOLUTE BASOPHIL / ABSOLUTE EOSINOPHIL / ABSOLUTE LYMPHOCYTE / ABSOLUTE MONOCYTE / BASOPHIL / EOSINOPHIL / ERYTHROCYTE COUNT / HEMATOCRIT / HEMOGLOBIN / LEUKOCYTE COUNT / LYMPHOCYTE / MEAN CORPUSCULAR HEMOGLOBIN / MEAN CORPUSCULAR HEMOGLOBIN CONCENTRATION / MEAN CORPUSCULAR VOLUME / MONOCYTE / NEUTROPHIL / PLATELET COUNT: tissue Blood
[1] = 72 h, tissue Plasma, time 3 day
[2] = 120 h, tissue Plasma, time 5 day

In the case of `Clc1ccc(Cl)cc1` [1,4-DICHLOROBENZENE], the ABSOLUTE BASOPHIL (72 h, time 3 day) is reported as 33.3 cells/µL, the ABSOLUTE EOSINOPHIL (72 h, time 3 day) is reported as 40 cells/µL and the ABSOLUTE LYMPHOCYTE (72 h, time 3 day) is reported as 9740 cells/µL. The ABSOLUTE MONOCYTE (72 h, time 3 day) was 310 cells/µL, the BASOPHIL (72 h, time 3 day) was 0.27% and the EOSINOPHIL (72 h, time 3 day) was 0.33%. The “ERYTHROCYTE COUNT” value (72 h, time 3 day) was 7.33 x10E6/uL, the HEMATOCRIT (72 h, time 3 day) was 47.67% and the HEMOGLOBIN (72 h, time 3 day) was 15.3 G/DL. For the same compound, the “LEUKOCYTE COUNT” value (72 h, time 3 day) was 11.53 x10E3/uL, the LYMPHOCYTE (72 h, time 3 day) was 85.37% and the “MEAN CORPUSCULAR HEMOGLOBIN” value (72 h, time 3 day) was 20.83 pg. For the same compound, the “MEAN CORPUSCULAR HEMOGLOBIN CONCENTRATION” value (72 h, time 3 day) was 32.07 G/DL, the “MEAN CORPUSCULAR VOLUME” value (72 h, time 3 day) was 65 fL and the MONOCYTE (72 h, time 3 day) was 2.5%. For the same compound, the NEUTROPHIL (72 h, time 3 day) was 11%, the “PLATELET COUNT” value (72 h, time 3 day) was 1237 x10E3/uL and the “ALANINE AMINOTRANSFERASE” value [1] was 80.33 u/L. For the same compound, the ALBUMIN [1] was 3.47 G/DL, the “ALKALINE PHOSPHATASE” value [1] was 437.33 u/L and the “ASPARTATE AMINOTRANSFERASE” value [1] was 129.33 u/L. For the same compound, the “BLOOD UREA NITROGEN” value [1] was 18.67 mg/dL, the “CARBON DIOXIDE” value [1] was 40 mmol/L and the CHLORIDE [1] was 106.67 MEQ/L. The CHOLESTEROL [1] was 71 mg/dL, the “CREATINE PHOSPHOKINASE” value [1] was 391 u/L and the CREATININE [1] was 0.63 mg/dL. The GLUCOSE [1] was 167.33 mg/dL, the LIPASE [1] was 199.33 u/L and the PHOSPHORUS [1] was 9.67 mg/dL. For the same compound, the POTASSIUM [1] was 5.7 MEQ/L, the SODIUM [1] was 148.67 MEQ/L and the “TOTAL BILIRUBIN” value [1] was 0.83 mg/dL. The “TOTAL PROTEIN” value [1] was 5.53 G/DL, the “URIC ACID” value [1] was 0.77 mg/dL and the ABSOLUTE BASOPHIL (120 h, time 5 day) was 30 cells/µL. It also gave an ABSOLUTE EOSINOPHIL (120 h, time 5 day) of 80 cells/µL, an ABSOLUTE LYMPHOCYTE (120 h, time 5 day) of 9070 cells/µL and an ABSOLUTE MONOCYTE (120 h, time 5 day) of 300 cells/µL. The BASOPHIL (120 h, time 5 day) was 0.3%, the EOSINOPHIL (120 h, time 5 day) was 0.73% and the “ERYTHROCYTE COUNT” value (120 h, time 5 day) was 7.06 x10E6/uL. For the same compound, the HEMATOCRIT (120 h, time 5 day) was 45.4%, the HEMOGLOBIN (120 h, time 5 day) was 14.13 G/DL and the “LEUKOCYTE COUNT” value (120 h, time 5 day) was 11.69 x10E3/uL. For the same compound, the LYMPHOCYTE (120 h, time 5 day) was 77.37%, the “MEAN CORPUSCULAR HEMOGLOBIN” value (120 h, time 5 day) was 20.03 pg and the “MEAN CORPUSCULAR HEMOGLOBIN CONCENTRATION” value (120 h, time 5 day) was 31.1 G/DL. For the same compound, the “MEAN CORPUSCULAR VOLUME” value (120 h, time 5 day) was 64.53 fL, the MONOCYTE (120 h, time 5 day) was 2.57% and the NEUTROPHIL (120 h, time 5 day) was 18.23%. The “PLATELET COUNT” value (120 h, time 5 day) was 1234.33 x10E3/uL, the “ALANINE AMINOTRANSFERASE” value [2] was 88.67 u/L and the ALBUMIN [2] was 3.83 G/DL. For the same compound, the “ALKALINE PHOSPHATASE” value [2] was 433.33 u/L, the “ASPARTATE AMINOTRANSFERASE” value [2] was 100.33 u/L and the “BLOOD UREA NITROGEN” value [2] was 16 mg/dL. The “CARBON DIOXIDE” value [2] was 42.33 mmol/L, the CHLORIDE [2] was 105.33 MEQ/L and the CHOLESTEROL [2] was 119 mg/dL. The “CREATINE PHOSPHOKINASE” value [2] was 376.67 u/L, the CREATININE [2] was 0.5 mg/dL and the GLUCOSE [2] was 166.67 mg/dL. It also gave an LIPASE [2] of 96 u/L, a PHOSPHORUS [2] of 9.13 mg/dL and a POTASSIUM [2] of 5.73 MEQ/L. For the same compound, the SODIUM [2] was 148.67 MEQ/L, the “TOTAL BILIRUBIN” value [2] was 0.6 mg/dL and the “TOTAL PROTEIN” value [2] was 6.27 G/DL. For the same compound, the “URIC ACID” value [2] was 0.57 mg/dL, the ABSOLUTE BASOPHIL (time 14 day) was 52 cells/µL and the ABSOLUTE EOSINOPHIL (time 14 day) was 38 cells/µL. It also gave an ABSOLUTE LYMPHOCYTE (time 14 day) of 10600 cells/µL, an ABSOLUTE MONOCYTE (time 14 day) of 320 cells/µL and a BASOPHIL (time 14 day) of 0.36%. For the same compound, the EOSINOPHIL (time 14 day) was 0.28%, the “ERYTHROCYTE COUNT” value (time 14 day) was 7.26 x10E6/uL and the HEMATOCRIT (time 14 day) was 44.36%. The HEMOGLOBIN (time 14 day) was 14.58 G/DL, the “LEUKOCYTE COUNT” value (time 14 day) was 14.34 x10E3/uL and the LYMPHOCYTE (time 14 day) was 74.48%. For the same compound, the “MEAN CORPUSCULAR HEMOGLOBIN” value (time 14 day) was 20.04 pg, the “MEAN CORPUSCULAR HEMOGLOBIN CONCENTRATION” value (time 14 day) was 32.82 G/DL and the “MEAN CORPUSCULAR VOLUME” value (time 14 day) was 61.16 fL. For the same compound, the MONOCYTE (time 14 day) was 2.18%, the NEUTROPHIL (time 14 day) was 22.12% and the “PLATELET COUNT” value (time 14 day) was 1242.2 x10E3/uL. For the same compound, the “ALANINE AMINOTRANSFERASE” value (tissue Plasma, time 14 day) was 68 u/L, the ALBUMIN (tissue Plasma, time 14 day) was 4.02 G/DL and the “ALKALINE PHOSPHATASE” value (tissue Plasma, time 14 day) was 529.2 u/L. For the same compound, the “ASPARTATE AMINOTRANSFERASE” value (tissue Plasma, time 14 day) was 89.8 u/L, the “BLOOD UREA NITROGEN” value (tissue Plasma, time 14 day) was 15.8 mg/dL and the “CARBON DIOXIDE” value (tissue Plasma, time 14 day) was 43.6 mmol/L. The CHLORIDE (tissue Plasma, time 14 day) was 102.2 MEQ/L, the CHOLESTEROL (tissue Plasma, time 14 day) was 110.2 mg/dL and the “CREATINE PHOSPHOKINASE” value (tissue Plasma, time 14 day) was 309 u/L. The CREATININE (tissue Plasma, time 14 day) was 0.78 mg/dL, the GLUCOSE (tissue Plasma, time 14 day) was 134.2 mg/dL and the “LACTATE DEHYDROGENASE” value (tissue Plasma, time 14 day) was 217.6 u/L. The LIPASE (tissue Plasma, time 14 day) was 10 u/L, the PHOSPHORUS (tissue Plasma, time 14 day) was 9.34 mg/dL and the POTASSIUM (tissue Plasma, time 14 day) was 5.94 MEQ/L. The SODIUM (tissue Plasma, time 14 day) was 147.8 MEQ/L, the “TOTAL BILIRUBIN” value (tissue Plasma, time 14 day) was 0.44 mg/dL and the “TOTAL PROTEIN” value (tissue Plasma, time 14 day) was 6.7 G/DL. The “URIC ACID” value (tissue Plasma, time 14 day) was 0.52 mg/dL.
